# Results published in patent US9580463B2 (BRISTOL-MYERS SQUIBB COMPANY, priority 2013, dated 2017).
# Read-outs that look alike come from different tables or passages of the source.
# Assays:
# [1] = test system: HCV genotype 1a (H77 strain) replicon in HUH-7 cells; experiment: HCV replicon luciferase reporter assay, genotype 1a; type: cell-based; details: Hepatitis C virus, 72 h, genotype 1a replicon, 3 days incubation
# Text: An HCV replicon whole cell system was established as described by Lohmann V, Korner F, Koch J, Herian U, Theilmann L, Bartenschlager R., Science 285(5424):110-3 (1999) and modified to introduce a luciferase reporter, as first described by Krieger et al (Krieger N, Lohmann V, and Bartenschlager R, J. Virol. 75(10):4614-4624 (2001)). CDNA encoding a humanized form of the Renilla luciferase gene and a linker sequence fused directly to the 3′-end of the luciferase gene were introduced into the replicon construct using an Asc1 restriction site located in core, directly upstream of the neomycin marker gene. The adaptive mutation at position 1179 (serine to isoleucine) was also introduced (Blight K J, Kolykhalov, A A, Rice, C M, Science 290(5498):1972-1974). A stable cell line constitutively expressing this HCV replicon construct was generated by first linearizing plasmid DNAs with ScaI. RNA transcripts were synthesized in vitro using the T7 MegaScript transcription kit (Ambion, Austin, Tex.) according to manufacturer's directions. In vitro transcripts of the cDNA were transfected into the human hepatoma cell line, HUH-7. […] Resulting cell lines were characterized for positive and negative strand RNA production and protein production over time.
# A stable HCV replicon luciferase reporter cell line representing the genotype 1a H77 strain (Yanagi M, Purcell R H, Emerson S U, et al. Transcripts from a single full-length cDNA clone of hepatitis C virus are infectious when directly transfected into the liver of a chimpanzee. Proc Natl Acad Sci USA 1997; 94(16):8738-8743) was generated as described previously for the genotype 1b (Con1) replicon luciferase cell line. The replicon construct was modified by introducing mutations were introduced into the genes encoding the NS3 helicase domain (proline replaced by leucine at position 1496) and NS5A (serine to isoleucine at position 2204) to improve replication in cell culture.
# HCV replicon luciferase assays were developed to monitor the inhibitory effects of compounds described in the disclosure on HCV genotypes 1a and 1b viral replication. HUH-7 cells, constitutively expressing the HCV replicon, were grown in Dulbecco's Modified Eagle Media (DMEM) (Gibco-BRL) containing 10% Fetal calf serum (FCS) (Sigma) and 1 mg/mL G418 (Gibco-BRL). Compounds were serially diluted 3 folds in DMSO for a twenty-point titration and subsequently transferred to sterile 384-well tissue-culture treated plates (Corning cat #3571). The plates were then seeded with 50 μL of cells at a density of 3.0×10^3 cells/well in DMEM containing 4% FCS (final DMSO concentration at 0.5%). After 3 days incubation at 37° C., cells were analyzed for Renilla Luciferase activity using the EnduRen as substrate (Promega cat #E6485). The EnduRen substrate was diluted in DMEM and then added to the plates to a final concentration of 7.5 μM. The plates were incubated for 2 hrs at 37° C. and then read immediately for 30 seconds with Viewlux Imager (PerkinElmer) using a luminescence program. To assess cytotoxicity of compounds, CC50 values were generated by multiplexing the EnduRen-containing plates with Cell Titer-Blue (Promega, cat # G8082). Cell-Titer Blue (3 μL) was added to each well and incubated for 8 hrs at 37° C. The fluorescence signal from each well was read, with an excitation wavelength at 525/10 nm and an emission wavelength of 598/10 nm, using the Viewlux Imager.
# The EC50 values for compounds were calculated by using a four-parameter logistic equation: y=A+((B−A)/(1+((C/x)^D))), where A and B denotes minimal and maximal % inhibition, respectively, C is the EC50, D is the hill slope and x represents compound concentration.
# [2] = test system: HCV genotype 1b (Con1) replicon in HUH-7 cells; experiment: HCV replicon luciferase reporter assay, genotype 1b; type: cell-based; details: Hepatitis C virus, 72 h, genotype 1b replicon, 3 days incubation
# Procedure, shortened: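 Twenty-point, threefold compound titrations (0.5% DMSO) were incubated 3 days at 37 °C with 3.0×10^3 HUH-7 cells/well in 4% FCS. The cells stably carried luciferase replicons: genotype 1b Con1 (S1179I) or 1a H77 (NS3 P1496L, NS5A S2204I). Renilla signal was read after 2 h with 7.5 μM EnduRen, and EC50 was taken from a four-parameter logistic fit. Cytotoxicity (CC50) was measured by Cell Titer-Blue, 8 h.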
SMILES,EC50 ([1]; read-out: LE_1a (EC50)) [nM],"EC50 ([1]; read-out: LE_1a (EC50, range)) [nM]",EC50 ([2]; read-out: LE_1b (EC50)) [nM],"EC50 ([2]; read-out: LE_1b (EC50, range)) [nM]"
"COC[C@@H]1C[C@H](C)CC/C=C\[C@@H]2C[C@@]2(C(=O)NS(=O)(=O)C2(C)CC2)NC(=O)[C@@H]2C[C@@H](Oc3ncc(OC)c4ccccc34)CN2C(=O)[C@H]1NC(=O)OC(C)(C)C(F)(F)F [Compound 1016, 1,1,1-trifluoro-2-methylpropan-2-yl ((2R,6S,7R,9R,13aS,14aR,16aS,Z)-2-((4-methoxyisoquinolin-1-yl)oxy)-7-(methoxymethyl)-9-methyl-14a-(((1-methylcyclopropyl)sulfonyl)carbamoyl)-5,16-dioxo-1,2,3,5,6,7,8,9,10,11,13a,14,14a,15,16,16a-hexadecahydrocyclopropa[e]pyrrolo[1,2-a][1,4]diazacyclopentadecin-6-yl)carbamate]",0.84,0.51 to 1,0.26,0.1 to 0.5
"COC[C@@H]1C[C@H](C)CC/C=C\[C@@H]2C[C@@]2(C(=O)NS(=O)(=O)C2CC2)NC(=O)[C@@H]2C[C@@H](Oc3ncc(OC)c4ccccc34)CN2C(=O)[C@H]1NC(=O)OC(C)(C)C [Compound 1003, tert-butyl ((2R,6S,7R,9R,13aS,14aR,16aS,Z)-14a-((cyclopropylsulfonyl)carbamoyl)-2-((4-methoxyisoquinolin-1-yl)oxy)-7-(methoxymethyl)-9-methyl-5,16-dioxo-1,2,3,5,6,7,8,9,10,11,13a,14,14a,15,16,16a-hexadecahydrocyclopropa[e]pyrrolo[1,2-a][1,4]diazacyclopentadecin-6-yl)carbamate]",,0.51 to 1,,0.1 to 0.5
"COC[C@@H]1C[C@H](C)CC/C=C\[C@@H]2C[C@@]2(C(=O)NS(=O)(=O)C2(CF)CC2)NC(=O)[C@@H]2C[C@@H](Oc3nc4cc(OC)ccc4nc3C(F)(F)F)CN2C(=O)[C@H]1NC(=O)OC(C)(C)C [Compound 1035, tert-butyl ((2R,6S,7R,9R,13aS,14aR,16aS,Z)-14a-(((1-(fluoromethyl)cyclopropyl)sulfonyl)carbamoyl)-2-((7-methoxy-3-(trifluoromethyl)quinoxalin-2-yl)oxy)-7-(methoxymethyl)-9-methyl-5,16-dioxo-1,2,3,5,6,7,8,9,10,11,13a,14,14a,15,16,16a-hexadecahydrocyclopropa[e]pyrrolo[1,2-a][1,4]diazacyclopentadecin-6-yl)carbamate]",,1.01 to 5,,1.01 to 5
"COC[C@@H]1C[C@@H](C)CC/C=C\[C@@H]2C[C@@]2(C(=O)NS(=O)(=O)C2(C)CC2)NC(=O)[C@@H]2C[C@@H](Oc3ncc(OC)c4ccccc34)CN2C(=O)[C@H]1NC(=O)OC(C)(C)C [Compound 1011, tert-butyl ((2R,6S,7R,9S,13aS,14aR,16aS,Z)-2-((4-methoxyisoquinolin-1-yl)oxy)-7-(methoxymethyl)-9-methyl-14a-(((1-methylcyclopropyl)sulfonyl)carbamoyl)-5,16-dioxo-1,2,3,5,6,7,8,9,10,11,13a,14,14a,15,16,16a-hexadecahydrocyclopropa[e]pyrrolo[1,2-a][1,4]diazacyclopentadecin-6-yl)carbamate]",,1.01 to 5,,1.01 to 5
COC[C@@H]1CCCC/C=C\[C@@H]2C[C@@]2(C(=O)NS(=O)(=O)C2CC2)NC(=O)[C@@H]2C[C@@H](Oc3nccc4cc(OC)c(F)cc34)CN2C(=O)[C@H]1NC(=O)OC(C)(C)C [Compound 1022],,1.01 to 5,,1.01 to 5
"COC[C@@H]1CCCC/C=C\[C@@H]2C[C@@]2(C(=O)NS(=O)(=O)C2(C)CC2)NC(=O)[C@@H]2C[C@@H](Oc3ncc(OC)c4ccccc34)CN2C(=O)[C@H]1NC(=O)OC(C)(C)C(F)(F)F [Compound 1002, 1,1,1-trifluoro-2-methylpropan-2-yl ((2R,6S,7R,13aS,14aR,16aS,Z)-2-((4-methoxyisoquinolin-1-yl)oxy)-7-(methoxymethyl)-14a-(((1-methylcyclopropyl)sulfonyl)carbamoyl)-5,16-dioxo-1,2,3,5,6,7,8,9,10,11,13a,14,14a,15,16,16a-hexadecahydrocyclopropa[e]pyrrolo[1,2-a][1,4]diazacyclopentadecin-6-yl)carbamate]",,0.51 to 1,,0.1 to 0.5
"COC[C@@H]1CCCC/C=C\[C@@H]2C[C@@]2(C(=O)NS(=O)(=O)C2(C)CC2)NC(=O)[C@@H]2C[C@@H](Oc3nccc4cc(OC)ccc34)CN2C(=O)[C@H]1NC(=O)OC(C)(C)C(F)(F)F [Compound 1001, 1,1,1-trifluoro-2-methylpropan-2-yl ((2R,6S,7R,13aS,14aR,16aS,Z)-2-((6-methoxyisoquinolin-1-yl)oxy)-7-(methoxymethyl)-14a-(((1-methylcyclopropyl)sulfonyl)carbamoyl)-5,16-dioxo-1,2,3,5,6,7,8,9,10,11,13a,14,14a,15,16,16a-hexadecahydrocyclopropa[e]pyrrolo[1,2-a][1,4]diazacyclopentadecin-6-yl)carbamate]",,1.01 to 5,,0.51 to 1
"COC[C@@H]1C[C@@H](C)CC/C=C\[C@@H]2C[C@@]2(C(=O)NS(=O)(=O)C2(C)CC2)NC(=O)[C@@H]2C[C@@H](Oc3nc4cc(OC)ccc4nc3C(F)(F)F)CN2C(=O)[C@H]1NC(=O)OC(C)(C)C(F)(F)F [Compound 1031, 1,1,1-trifluoro-2-methylpropan-2-yl ((2R,6S,7R,9S,13aS,14aR,16aS,Z)-2-((7-methoxy-3-(trifluoromethyl)quinoxalin-2-yl)oxy)-7-(methoxymethyl)-9-methyl-14a-(((1-methylcyclopropyl)sulfonyl)carbamoyl)-5,16-dioxo-1,2,3,5,6,7,8,9,10,11,13a,14,14a,15,16,16a-hexadecahydrocyclopropa[e]pyrrolo[1,2-a][1,4]diazacyclopentadecin-6-yl)carbamate]",,5.01 to 35,,1.01 to 5
"COC[C@@H]1CCCC/C=C\[C@@H]2C[C@@]2(C(=O)NS(=O)(=O)C2(C)CC2)NC(=O)[C@@H]2C[C@@H](Oc3ncc(OC)c4ccccc34)CN2C(=O)[C@H]1NC(=O)OC(C)(C)C [Compound 1007, tert-butyl ((2R,6S,7R,13aS,14aR,16aS,Z)-2-((4-methoxyisoquinolin-1-yl)oxy)-7-(methoxymethyl)-14a-(((1-methylcyclopropyl)sulfonyl)carbamoyl)-5,16-dioxo-1,2,3,5,6,7,8,9,10,11,13a,14,14a,15,16,16a-hexadecahydrocyclopropa[e]pyrrolo[1,2-a][1,4]diazacyclopentadecin-6-yl)carbamate]",,1.01 to 5,,0.51 to 1
"COC[C@@H]1C[C@@H](C)CC/C=C\[C@@H]2C[C@@]2(C(=O)NS(=O)(=O)C2(C)CC2)NC(=O)[C@@H]2C[C@@H](Oc3nc4cc(OC)ccc4nc3C(C)C)CN2C(=O)[C@H]1NC(=O)OC(C)(C)C(F)(F)F [Compound 1033, 1,1,1-trifluoro-2-methylpropan-2-yl ((2R,6S,7R,9S,13aS,14aR,16aS,Z)-2-((3-isopropyl-7-methoxyquinoxalin-2-yl)oxy)-7-(methoxymethyl)-9-methyl-14a-(((1-methylcyclopropyl)sulfonyl)carbamoyl)-5,16-dioxo-1,2,3,5,6,7,8,9,10,11,13a,14,14a,15,16,16a-hexadecahydrocyclopropa[e]pyrrolo[1,2-a][1,4]diazacyclopentadecin-6-yl)carbamate]",,5.01 to 35,,1.01 to 5
